Laboratory results from patent US20050090522A1 (priority 2001, published 2005).
Where two headings read alike, the source gives them in different places.

Legend:
HIV-1 = HIV-1 single-round infectious luciferase reporter virus (pseudotype) assay in HeLa CD4 CCR5 cells; assay type: cell-based
In short: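 Reporter pseudovirus produced in 293 cells infected HeLa cells expressing CD4/CCR5 at MOI ~0.01, with compound present at <10 μM final. Infection was quantified as luciferase luminescence after 72 h.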

HeLa cells = assay: Cytotoxicity assay in HeLa cells (MTT dye reduction, CC50); conditions: cytotoxicity; Yes = CC50 above 100 uM, No = not
Procedure: • Virus production—Human embryonic Kidney cell line, 293, propagated in Dulbecco's Modified Eagle Medium (Life Technologies, Gaithersburg, Md.) containing 10% fetal Bovine serum (FBS, Sigma, St. Louis, Mo.). • Virus infection—Human epithelial cell line, HeLa, expressing the HIV-1 receptors CD4 and CCR^5 was propagated in Dulbecco's Modified Eagle Medium (Life Technologies, Gaithersburg, Md.) containing 10% fetal Bovine serum (FBS, Sigma, St. Louis, Mo.) and supplemented with 0.2 mg/mL Geneticin (Life Technologies, Gaithersburg, Md.) and 0.4 mg/mL Zeocin (Invitrogen, Carlsbad, Calif.). […] Transfections were performed using lipofectAMINE PLUS reagent as described by the manufacturer (Life Technologies, Gaithersburg, Md.). Experiment • 1. Compound was added to HeLa CD4 CCR5 cells plated in 96 well plates at a cell density of 5×10^4 cells per well in 100 μl Dulbecco's Modified Eagle Medium containing 10% fetal Bovine serum at a concentration of […]. • 2. 100 μl of single-round infectious reporter virus in Dulbecco's Modified Eagle Medium was then added to the plated cells and compound at an approximate multiplicity of infection (MOI) of 0.01, resulting in a final volume of 200 μl per well and a final compound concentration of <10 μM. • 3. Samples were harvested 72 h after infection. • 4. Viral infection was monitored by measuring luciferase expression from viral DNA in the infected cells using a luciferase reporter gene assay kit (Roche Molecular Biochemicals, Indianapolis, Ind.). Infected cell supernatants were removed and 50 μl of Dulbecco's Modified Eagle Medium (without phenol red) and 50 μl of luciferase assay reagent reconstituted as described by the manufacturer (Roche Molecular Biochemicals, Indianapolis, Ind.) was added per well. Luciferase activity was then quantified by measuring luminescence using a Wallac microbeta scintillation counter. • 5. […] An EC50 provides a method for comparing the antiviral potency of the compounds of this invention. The effective concentration for fifty percent inhibition (EC50) was calculated with the Microsoft Excel Xlfit curve fitting software. For each compound, curves were generated from percent inhibition calculated at 10 different concentrations by using a four paramenter logistic model (model 205). Table 1 is the key for the data in Tables 2-4. Cytoxicity assays were conducted with the same HeLa using methodology well known in the art.
For accuracy, the determined measure of viral inhibition is an EC50; but the minimum plasma concentrations which should be maintained in a patient is generally believed to be at least four or five fold higher. […] Lower is better. • 4) Estimating potential exposure in man by measuring parameters such as AUC and rate of clearance by oral and iv dosing in rats. High exposure and low clearance was desired.

[1] = Human immunodeficiency virus 1, HeLa-CD4/CCR5, read-out: EC50 Group from TABLE 1, HeLa CD4 CCR5 cells, single-round infectious luciferase reporter virus
[2] = Human immunodeficiency virus 1, HeLa-CD4/CCR5, read-out: EC50 category, HIV-1 single-round reporter virus assay, category 1/2/3 per Table A1 key
[3] = Human immunodeficiency virus 1, HeLa-CD4/CCR5, read-out: EC50 Group from Table 1, Table 2-1, HeLa CD4 CCR5 cells, single-round luciferase reporter virus

SMILES | EC50 (HIV-1; [1]) [nM] | EC50 (HIV-1; [2]) [nM] | CC50 > 100 uM (HeLa cells) | EC50 (HIV-1; [3]) [nM]
COc1ncc(-c2ncc(OC)c3c(C(=O)C(=O)N4CCN(C(=O)c5ccccc5)CC4)c[nH]c23)c(OC)n1 [Example 13, 1-benzoyl-4-[(4-methoxy-7-(2,4-dimethoxy-pyrimidin-5-yl)-6-azaindol-3-yl)-oxoacetyl]piperazine] | < 1000 | 0.2 to 1000 | Yes | –
COc1cnc(-c2ccn(C)n2)c2[nH]cc(C(=O)C(=O)N3CCN(C(=O)c4ccccc4)CC3)c12 [Example 22, 1-benzoyl-4-[(4-methoxy-7-(1-methyl-pyrazol-3-yl)-6-azaindol-3-yl)-oxoacetyl]piperazine] | < 1000 | < 0.2 | No | –
COc1cnc(-c2cccn2C)c2[nH]cc(C(=O)C(=O)N3CCN(C(=O)c4ccccc4)CC3)c12 [Example 28, 1-benzoyl-4-[(4-methoxy-7-(11-methyl-pyrrol-2-yl)-6-azaindol-3-yl)oxoacetyl]piperazine] | < 1000 | > 1000 | No | –
C[C@@H]1CN(C(=O)c2ccccc2)CCN1C(=O)C(=O)c1c[nH]c2c(-c3nccs3)ncc(F)c12 [Example 37, 1-benzoyl-3-(R)-methyl-4-[(4-fluoro-7-(thiazol-2-yl)-6-azaindol-3-yl)-oxoacetyl]piperazine] | < 1000 | < 0.2 | No | –
COc1cnc(-c2cncnc2)c2[nH]cc(C(=O)C(=O)N3CCN(C(=O)c4ccccc4)CC3)c12 [Example 40, 1-benzoyl-4-[(4-methoxy-7-(pyfimidin-5-yl)-6-azaindol-3-yl)-oxoacetyl]piperazine] | < 1000 | 0.2 to 1000 | No | –
CNC(=O)c1ccc(-c2ncc(OC)c3c(C(=O)C(=O)N4CCN(C(=O)c5ccccc5)CC4)c[nH]c23)o1 [Example 94, 1-benzoyl-4-[(4-methoxy-7-(2-methylaminocarbonyl-furan-5-yl)-6-azaindol-3-yl)-oxoacetyl]piperazine] | < 1000 | < 0.2 | Yes | –
O=C(C(=O)N1CCN(C(=O)c2ccccc2)CC1)c1c[nH]c2c(-c3cnc[nH]3)ncc(F)c12 [Example 148] | < 1000 | 0.2 to 1000 | Yes | –
COc1cnc(-n2cccn2)c2[nH]cc(C(=O)C(=O)N3CCN(C(=O)c4ccccc4)CC3)c12 [Example 189, 1-benzoyl-4-[(4-methoxy-7-(1-pyrazolyl)-6-azaindol-3-yl)-oxoacetyl]piperazine] | < 1000 | 0.2 to 1000 | Yes | –
COc1cnc(-n2cc(C)cn2)c2[nH]cc(C(=O)C(=O)N3CCN(C(=O)c4ccccc4)CC3)c12 [Example 191, 1-benzoyl-4-[(4-methoxy-7-(4-methylpyrazol-1-yl)-6-azaindol-3-yl)-oxoacetyl]piperazine] | < 1000 | 0.2 to 1000 | Yes | –
COc1cnc(-n2ccc(-c3ccc(C(F)(F)F)cc3)n2)c2[nH]cc(C(=O)C(=O)N3CCN(C(=O)c4ccccc4)CC3)c12 [Example 288, 1-benzoyl-4-[(4-methoxy-7-(3-(4-trifluoromethyl-phenyl)-pyrazol-1-yl)-6-azaindol-3-yl)-oxoacetyl]piperazine] | < 1000 | – | – | –
CCCSc1ncn(-c2ncc(OC)c3c(C(=O)C(=O)N4CCN(C(=O)c5ccccc5)CC4)c[nH]c23)n1 [Example 289, 1-benzoyl-4-[(4-methoxy-7-(3-propylsulfanyl-[1,2,4]triazol-1-yl)-6-azaindol-3-yl)-oxoacetyl]piperazine] | < 1000 | – | – | –
CCCS(=O)(=O)c1ncn(-c2ncc(OC)c3c(C(=O)C(=O)N4CCN(C(=O)c5ccccc5)CC4)c[nH]c23)n1 [Example 290, 1-benzoyl-4-[(4-methoxy-7-(3-(propane-1-sulfonyl)-[1,2,4]triazol-1-yl)-6-azaindol-3-yl)-oxoacetyl]piperazine] | < 1000 | – | – | –
COc1ncn(-c2ncc(OC)c3c(C(=O)C(=O)N4CCN(C(=O)c5ccccc5)CC4)c[nH]c23)n1 [Example 291, 1-benzoyl-4-[(4-methoxy-7-(3-methoxy-[1,2,4]triazol-1-yl)-6-azaindol-3-yl)-oxoacetyl]piperazine] | < 1000 | – | – | –
COc1cnc(-n2ccc(-c3ccc(C(=O)O)cc3)n2)c2[nH]cc(C(=O)C(=O)N3CCN(C(=O)c4ccccc4)CC3)c12 [Example 292, 1-benzoyl-4-[(4-methoxy-7-(3-(4-hydroxylcarbonylphenyl)-pyrazol-1-yl)-6-azaindol-3-yl)-oxoacetyl]piperazine] | < 1000 | – | – | –
COC(=O)c1ccc(-c2ccn(-c3ncc(OC)c4c(C(=O)C(=O)N5CCN(C(=O)c6ccccc6)CC5)c[nH]c34)n2)cc1 [Example 293, 1-benzoyl-4-[(4-methoxy-7-(3-(4-methoxycarbonylphenyl)-pyrazol-1-yl)-6-azaindol-3-yl)-oxoacetyl]piperazine] | < 1000 | – | – | –
COc1cnc(-n2ccc(-c3cccc(C(=O)O)c3)n2)c2[nH]cc(C(=O)C(=O)N3CCN(C(=O)c4ccccc4)CC3)c12 [Example 294, 1-benzoyl-4-[(4-methoxy-7-(3-(3-hydroxylcarbonylphenyl)-pyrazol-1-yl)-6-azaindol-3-yl)-oxoacetyl]piperazine] | < 1000 | – | – | –

SMILES | EC50 (HIV-1; [1]) [nM] | EC50 (HIV-1; [2]) [nM] | CC50 > 100 uM (HeLa cells) | EC50 (HIV-1; [3]) [nM]
CNc1nc(-c2ncc(F)c3c(C(=O)C(=O)N4CCN(C(=O)c5ccccc5)CC4)c[nH]c23)no1 [Example 298] | < 1000 | – | – | –
CCOC(=O)c1cc(C)nn1-c1ncc(F)c2c(C(=O)C(=O)N3CCN(C(=O)c4ccccc4)CC3)c[nH]c12 [Example 311] | < 1000 | – | – | –
COc1cnc(-n2ncnc2C)c2[nH]cc(C(=O)C(=O)N3CCN(C(=O)c4ccccc4)CC3)c12 [Example 319] | < 1000 | – | – | –
COCc1ncn(-c2ncc(OC)c3c(C(=O)C(=O)N4CCN(C(=O)c5ccccc5)CC4)c[nH]c23)n1 [Example 323] | < 1000 | – | – | –
COc1cnc(-n2cnc(CCC(=O)O)c2)c2[nH]cc(C(=O)C(=O)N3CCN(C(=O)c4ccccc4)CC3)c12 [Example 329] | < 1000 | – | – | –
COc1cnc(Nc2ccccn2)c2[nH]cc(C(=O)C(=O)N3CCN(C(=O)c4ccccc4)CC3)c12 [Example 330] | < 1000 | – | – | –
COc1cnc(N(c2ccccn2)S(C)(=O)=O)c2[nH]cc(C(=O)C(=O)N3CCN(C(=O)c4ccccc4)CC3)c12 [Example 331] | < 1000 | – | – | –
COc1cnc(-c2nc(-c3ccccc3)n[nH]2)c2[nH]cc(C(=O)C(=O)N3CCN(C(=O)c4ccccc4)[C@H](C)C3)c12 [Example 335] | – | – | – | < 1000
CCc1n[nH]c(-c2ncc(OC)c3c(C(=O)C(=O)N4CCN(C(=O)c5ccccc5)[C@H](C)C4)c[nH]c23)n1 [Example 336] | – | – | – | < 1000
COc1cnc(-c2nc(-c3ccc(C)cc3)n[nH]2)c2[nH]cc(C(=O)C(=O)N3CCN(C(=O)c4ccccc4)[C@H](C)C3)c12 [Example 337] | – | – | – | < 1000
COc1cnc(-c2nc(-c3cccnc3)n[nH]2)c2[nH]cc(C(=O)C(=O)N3CCN(C(=O)c4ccccc4)[C@H](C)C3)c12 [Example 338] | – | – | – | < 1000
COc1cnc(-c2nc(-c3cccc(Cl)c3)n[nH]2)c2[nH]cc(C(=O)C(=O)N3CCN(C(=O)c4ccccc4)[C@H](C)C3)c12 [Example 339] | – | – | – | < 1000
COc1cnc(-c2nc(-c3ccoc3)n[nH]2)c2[nH]cc(C(=O)C(=O)N3CCN(C(=O)c4ccccc4)[C@H](C)C3)c12 [Example 340] | – | – | – | < 1000
COc1cnc(-c2nc(-c3csc(C)n3)n[nH]2)c2[nH]cc(C(=O)C(=O)N3CCN(C(=O)c4ccccc4)[C@H](C)C3)c12 [Example 341] | < 1000 | – | – | < 1000
COc1cnc(-c2cnccn2)c2[nH]cc(C(=O)C(=O)N3CCN(C(=O)OC(C)(C)C)CC3)c12 [Precursor 5t] | < 1000 | – | – | –
